{"source": "BindingDB's records for patent US20240425513", "about": "(Carmot Therapeutics, 2024)", "molecular_target": "T1, Ubiquitin carboxyl-terminal hydrolase 28 (Homo sapiens, UniProt Q96RU2)", "T1 sequence (Q96RU2 whole entry)": "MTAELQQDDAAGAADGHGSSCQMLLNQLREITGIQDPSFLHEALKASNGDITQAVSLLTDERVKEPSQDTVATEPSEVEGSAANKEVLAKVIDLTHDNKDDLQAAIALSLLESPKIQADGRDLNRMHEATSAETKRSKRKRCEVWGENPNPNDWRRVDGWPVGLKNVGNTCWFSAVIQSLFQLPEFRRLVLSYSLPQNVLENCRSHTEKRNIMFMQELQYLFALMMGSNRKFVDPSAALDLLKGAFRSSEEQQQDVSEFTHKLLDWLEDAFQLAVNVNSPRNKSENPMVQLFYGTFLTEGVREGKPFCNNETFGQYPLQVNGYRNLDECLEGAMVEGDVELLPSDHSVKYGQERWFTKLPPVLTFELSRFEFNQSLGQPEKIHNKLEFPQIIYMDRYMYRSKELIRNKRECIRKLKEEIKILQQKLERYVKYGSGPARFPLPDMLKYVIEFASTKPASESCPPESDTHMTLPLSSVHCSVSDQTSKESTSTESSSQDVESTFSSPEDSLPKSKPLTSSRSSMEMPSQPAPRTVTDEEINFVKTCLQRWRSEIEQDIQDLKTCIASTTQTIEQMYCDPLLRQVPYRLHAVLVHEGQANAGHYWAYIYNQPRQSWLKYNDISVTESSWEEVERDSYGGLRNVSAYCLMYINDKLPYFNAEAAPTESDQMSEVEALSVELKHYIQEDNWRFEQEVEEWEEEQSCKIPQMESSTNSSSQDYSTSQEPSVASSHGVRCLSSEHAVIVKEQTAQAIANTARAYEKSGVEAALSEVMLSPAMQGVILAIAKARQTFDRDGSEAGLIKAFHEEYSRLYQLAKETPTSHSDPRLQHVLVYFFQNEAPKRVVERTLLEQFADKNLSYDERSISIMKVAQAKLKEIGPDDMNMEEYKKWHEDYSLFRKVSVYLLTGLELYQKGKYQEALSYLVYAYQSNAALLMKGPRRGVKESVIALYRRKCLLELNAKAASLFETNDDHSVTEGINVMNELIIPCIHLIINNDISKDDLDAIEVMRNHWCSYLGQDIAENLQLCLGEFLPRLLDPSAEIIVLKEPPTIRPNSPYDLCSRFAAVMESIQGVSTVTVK", "assay": "Ubiquitin-Rhodamine 110 Assay", "procedure": "Enzyme (His6 USP28, BostonBiochem, #E-570) concentration and incubation times were optimized for the maximal signal to background while maintaining the initial velocity conditions at a fixed substrate concentration. […] 2 μl of 4× enzyme was added to assay plates (pre stamped with compound) and incubated for 2 h at room temperature. […] of 4× substrate was subsequently added to the assay plates and incubated for 2 h at room temperature.", "data": [{"smiles": "CC(Oc1ccc(-c2nc(Cc3cccc(Cl)c3)no2)cc1)C(=O)N[C@@H]1C[C@@H](C)N(C#N)C1", "note": "(stereo partly specified) [US20240425513, Example 11]", "values": [{"measurement": "IC50", "value": "> 1000", "unit": "nM"}]}]}
